# Reference: patent US6492371B2, “Use of cyclic GMP-specific phosphodiesterase inhibitors for treatment of Parkinson's Disease” (priority 2000, dated 2002)
# Counter-ions that a name gives are not always drawn.
# What was measured:
# [1] = oral, monotherapy; rapid peripheral metabolism by dopa decarboxylase and COMT; cited from earlier work
# [2] = tested on: effectiveness of L-dopa and dopaminergic ergot derivatives in PD; settings: therapy of PD, combination with L-dopa and lisuride; cited from earlier work
# [3] = tested on: anti-parkinson action of bromocriptine; settings: patients with PD, concomitant caffeine and bromocriptine; cited from earlier work
# Parkinson's symptoms = assay: Administration of a PDE5 inhibitor compound to a patient suffering from Parkinson's Disease; format: in vivo, human; settings: one patient with PD administered the PDE5 inhibitor
# From the text: The PDE5 inhibitor was 5-(2-ethoxy-5-(4-methyl-1-piperazinylsulphonyl)phenyl)-1-methyl-3-n-propyl-1,6-dihydro-7H-pyrazolo[4,3-d]pyrimidin-7-one, otherwise known as sildenafil citrate (Viagra®).
smiles,measurement,setting,value
N[C@@H](Cc1ccc(O)c(O)c1)C(=O)O [L-dopa],fraction of orally administered L-dopa that penetrates into brain,[1],Less than 1%
"COc1ccc(C2CNC(=O)C2)cc1OC1CCCC1 (stereo not shown) [Rolipram, rolipram]",potentiation of the effect of L-dopa and lisuride,[2],failed to potentiate the effect of L-dopa and lisuride
Cn1c(=O)c2c(ncn2C)n(C)c1=O [caffeine],potentiation of the anti-parkinson action of bromocriptine,[3],failed to potentiate the anti-parkinson action of bromocriptine
"CCCc1nn(C)c2c(=O)[nH]c(-c3cc(S(=O)(=O)N4CCN(C)CC4)ccc3OCC)nc12 [sildenafil citrate, 5-(2-ethoxy-5-(4-methyl-1-piperazinylsulphonyl)phenyl)-1-methyl-3-n-propyl-1,6-dihydro-7H-pyrazolo[4,3-d]pyrimidin-7-one]",effect on Parkinson's symptoms noted by the patient,Parkinson's symptoms,an improvement in their Parkinson's symptoms
